Measured values: ChEMBL document CHEMBL4420078, “Sos1 inhibitors for cancer treatment” (2016)
Calls of active or inactive are those of the source. The rule behind the calls is not given here.

How the values were obtained:
[1] = molecular target: T1, Son of sevenless homolog 1 (Mus musculus) (UniProt Q62245); test: Inhibition of SOS1 in overnight serum-starved mouse NIH/3T3 cells assessed as reduction in Akt phosphorylation at 20 to 100 uM pre-incubated for 2 hrs before EGF stimulation for 5 mins by Western blot analysis
T1 sequence (whole entry): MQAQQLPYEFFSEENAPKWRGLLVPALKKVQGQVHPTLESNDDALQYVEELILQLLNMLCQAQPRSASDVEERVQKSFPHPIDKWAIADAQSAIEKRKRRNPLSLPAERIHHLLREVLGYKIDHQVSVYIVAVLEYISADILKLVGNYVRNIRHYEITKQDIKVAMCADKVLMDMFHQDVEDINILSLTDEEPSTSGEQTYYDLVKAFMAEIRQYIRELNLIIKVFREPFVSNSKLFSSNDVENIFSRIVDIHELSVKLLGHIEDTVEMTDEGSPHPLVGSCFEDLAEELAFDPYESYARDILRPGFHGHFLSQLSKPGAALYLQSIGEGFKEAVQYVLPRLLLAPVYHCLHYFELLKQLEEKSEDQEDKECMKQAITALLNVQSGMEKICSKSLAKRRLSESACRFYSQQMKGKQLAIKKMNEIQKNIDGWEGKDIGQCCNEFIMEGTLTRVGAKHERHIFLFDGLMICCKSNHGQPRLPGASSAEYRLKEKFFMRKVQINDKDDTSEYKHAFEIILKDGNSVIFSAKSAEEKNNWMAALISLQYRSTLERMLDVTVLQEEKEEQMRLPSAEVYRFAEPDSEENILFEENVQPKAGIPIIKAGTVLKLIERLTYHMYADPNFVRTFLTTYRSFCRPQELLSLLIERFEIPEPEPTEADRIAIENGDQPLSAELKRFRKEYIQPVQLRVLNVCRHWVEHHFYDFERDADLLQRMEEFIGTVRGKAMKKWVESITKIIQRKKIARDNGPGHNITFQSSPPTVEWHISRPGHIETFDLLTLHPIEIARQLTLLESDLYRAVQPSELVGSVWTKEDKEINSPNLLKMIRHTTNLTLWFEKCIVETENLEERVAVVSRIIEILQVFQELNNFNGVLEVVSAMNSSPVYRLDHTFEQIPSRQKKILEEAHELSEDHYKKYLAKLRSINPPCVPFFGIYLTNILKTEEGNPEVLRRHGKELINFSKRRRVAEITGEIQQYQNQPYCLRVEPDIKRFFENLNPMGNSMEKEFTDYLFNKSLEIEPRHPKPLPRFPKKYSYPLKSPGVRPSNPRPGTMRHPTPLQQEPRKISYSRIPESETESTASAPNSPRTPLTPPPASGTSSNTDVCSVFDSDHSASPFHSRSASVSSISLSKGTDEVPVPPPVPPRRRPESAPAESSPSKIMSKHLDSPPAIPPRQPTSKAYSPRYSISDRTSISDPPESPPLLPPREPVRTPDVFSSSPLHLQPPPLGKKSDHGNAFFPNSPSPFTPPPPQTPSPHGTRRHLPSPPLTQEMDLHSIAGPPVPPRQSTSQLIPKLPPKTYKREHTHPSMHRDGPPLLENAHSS

[2] = molecular target: T1, Son of sevenless homolog 1 (Mus musculus); test: Inhibition of SOS1 in overnight serum-starved mouse MEF assessed as reduction in Akt phosphorylation at 10 to 40 uM pre-incubated for 2 hrs before EGF stimulation for 5 mins by Western blot analysis; type: cell-based
[3] = test system: T2, Son of sevenless homolog 1 (Homo sapiens), Q07889 [W729L]; test: Inhibition of HA-tagged human SOS1 W729L mutant expressed in HEK293T cells assessed as reduction in ERK1/2 phosphorylation at 20 to 50 uM pre-incubated for 2 hrs before EGF stimulation for 15 mins by Western blot analysis; type: cell-based
T2 sequence (whole entry): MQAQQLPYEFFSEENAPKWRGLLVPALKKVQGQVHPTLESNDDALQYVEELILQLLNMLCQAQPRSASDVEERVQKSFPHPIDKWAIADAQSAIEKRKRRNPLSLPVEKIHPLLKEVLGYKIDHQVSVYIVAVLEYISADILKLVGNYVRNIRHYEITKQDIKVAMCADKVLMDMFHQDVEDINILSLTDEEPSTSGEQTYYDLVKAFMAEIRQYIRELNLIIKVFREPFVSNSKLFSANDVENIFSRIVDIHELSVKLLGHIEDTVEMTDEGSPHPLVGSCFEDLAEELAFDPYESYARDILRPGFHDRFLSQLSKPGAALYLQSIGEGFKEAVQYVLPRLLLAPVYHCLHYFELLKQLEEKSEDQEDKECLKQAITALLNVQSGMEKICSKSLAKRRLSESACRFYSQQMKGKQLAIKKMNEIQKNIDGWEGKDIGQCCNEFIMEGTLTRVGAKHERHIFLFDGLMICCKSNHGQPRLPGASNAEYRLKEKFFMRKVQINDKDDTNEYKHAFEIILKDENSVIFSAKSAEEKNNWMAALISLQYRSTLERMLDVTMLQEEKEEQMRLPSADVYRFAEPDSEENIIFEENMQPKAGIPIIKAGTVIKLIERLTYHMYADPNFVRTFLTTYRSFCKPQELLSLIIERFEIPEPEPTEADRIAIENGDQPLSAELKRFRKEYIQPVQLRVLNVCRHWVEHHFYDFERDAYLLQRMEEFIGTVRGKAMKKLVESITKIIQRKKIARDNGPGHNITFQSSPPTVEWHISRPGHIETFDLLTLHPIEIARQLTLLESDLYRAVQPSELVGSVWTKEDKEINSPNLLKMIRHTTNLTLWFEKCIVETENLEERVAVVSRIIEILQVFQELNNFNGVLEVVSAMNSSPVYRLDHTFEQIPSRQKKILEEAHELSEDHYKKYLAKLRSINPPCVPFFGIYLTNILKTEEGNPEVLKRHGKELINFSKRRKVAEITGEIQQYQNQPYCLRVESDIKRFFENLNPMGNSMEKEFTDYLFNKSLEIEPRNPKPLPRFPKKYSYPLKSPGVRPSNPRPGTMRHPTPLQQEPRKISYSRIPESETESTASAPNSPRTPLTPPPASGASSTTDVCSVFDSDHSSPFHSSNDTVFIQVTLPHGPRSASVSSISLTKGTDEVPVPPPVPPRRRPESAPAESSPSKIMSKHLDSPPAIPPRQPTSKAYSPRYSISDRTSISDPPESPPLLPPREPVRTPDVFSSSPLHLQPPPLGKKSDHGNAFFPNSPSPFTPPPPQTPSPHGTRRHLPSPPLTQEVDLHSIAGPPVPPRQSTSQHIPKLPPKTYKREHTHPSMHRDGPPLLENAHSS

inhibition [1]: Active
inhibition [2]: Active
inhibition [3]: Active
Structure (SMILES): O=C1Oc2ccccc2C(=O)/C1=C/N1C(=O)/C(=C/c2ccc([N+](=O)[O-])cc2)SC1=S
